We go through 14 molecules from patent publication EP3130589A1, “HETEROCYCLIC AZA COMPOUNDS” (Grünenthal GmbH, priority 2015, dated 2017).

Structures are written as SMILES.

As usually defined, the inhibition is the relative decrease from the control value, in per cent. By Ki is commonly meant the equilibrium dissociation constant of an inhibitor or competing ligand from its target.

T1 sequence (Q8NER1 whole entry): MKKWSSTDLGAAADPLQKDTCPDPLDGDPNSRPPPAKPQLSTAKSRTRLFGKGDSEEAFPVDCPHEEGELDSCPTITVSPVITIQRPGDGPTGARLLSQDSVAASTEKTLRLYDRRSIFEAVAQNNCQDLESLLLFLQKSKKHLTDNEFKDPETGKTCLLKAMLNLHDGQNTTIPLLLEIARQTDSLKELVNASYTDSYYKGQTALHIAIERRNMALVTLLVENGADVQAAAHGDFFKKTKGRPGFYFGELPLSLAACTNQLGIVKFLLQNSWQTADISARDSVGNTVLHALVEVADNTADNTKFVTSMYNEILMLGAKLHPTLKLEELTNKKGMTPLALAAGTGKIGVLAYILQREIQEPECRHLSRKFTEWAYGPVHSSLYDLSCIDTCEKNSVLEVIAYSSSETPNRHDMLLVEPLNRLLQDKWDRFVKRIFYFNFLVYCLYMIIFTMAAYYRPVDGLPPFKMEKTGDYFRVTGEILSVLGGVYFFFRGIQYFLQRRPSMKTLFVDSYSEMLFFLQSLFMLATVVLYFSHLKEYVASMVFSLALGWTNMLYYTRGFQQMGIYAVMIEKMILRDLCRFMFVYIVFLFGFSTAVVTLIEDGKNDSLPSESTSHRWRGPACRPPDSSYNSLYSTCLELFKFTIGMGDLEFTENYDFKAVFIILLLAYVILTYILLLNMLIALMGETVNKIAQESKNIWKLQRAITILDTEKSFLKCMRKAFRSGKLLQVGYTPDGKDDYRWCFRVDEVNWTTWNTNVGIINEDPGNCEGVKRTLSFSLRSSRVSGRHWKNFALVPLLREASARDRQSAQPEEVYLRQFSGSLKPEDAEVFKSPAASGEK

The first assay has as its target T1, TRPV1 human (Homo sapiens, UniProt Q8NER1).
T1 construct: expressed in transfected cells; host or cells: CHO K1 cells
The assay is described as follows: Functional testing on the vanilloid receptor 1 (VR1/TRPV1): FLIPR Ca2+ influx assay, inhibition of capsaicin (CAP) stimulation. The format is cell-based. As to conditions: @ 1 µM compound; capsaicin (CAP) stimulus; relative to maximum achievable inhibition with 10 µM capsazepine; read-out: TRPV1 human (f) CAP, inhibition (in %). As for the experimental part: Furthermore, preference may be given to compounds according to the invention that cause a 50 per cent displacement of capsaicin, which is present at a concentration of 100 nM, in a FLIPR assay with CHO K1 cells which were transfected with the human VR1 gene at a concentration of less than 6,000 nM, preferably less than 5,000 nM, more preferably less that 3,000 nM or less than 1,000 nM and particularly preferably less than 300 nM, most particularly preferably less than 100 nM, even more preferably less than 75 nM, additionally preferably less than 50 nM, most preferably less than 10 nM.
In the process, the Ca^2+ influx is quantified in the FLIPR assay with the aid of a Ca^2+-sensitive dye (type Fluo-4, Molecular Probes Europe BV, Leiden, the Netherlands) in a fluorescent imaging plate reader (FLIPR, Molecular Devices, Sunnyvale, USA), as described hereinafter.
Functional testing carried out on the vanilloid receptor 1 (VRI/TRPV1 receptor) […]
The number of cells in the suspension is set to 3 x 10^5 per mL and 150 µL of this suspension are in each case introduced into a recess in the cell culture plates coated as described hereinbefore. In the incubator the plates are left for two to three days at 37°C, 5 vol.-% of CO2 and 95 % relative humidity. Subsequently, the cells are loaded with 2 µM of Fluo-4 and 0.01 vol.-% of Pluronic F127 (Molecular Probes Europe BV, Leiden, the Netherlands) in HBSS buffer for 30 min at 37°C, washed 3 times with HBSS buffer and after further incubation for 15 min at RT used for Ca^2+ measurement in a FLIPR assay. The Ca^2+-dependent fluorescence is in this case measured before and after the addition of substances (λex = 488 nm, λem = 540 nm). Quantification is carried out by measuring the highest fluorescence intensity (FC, fluorescence counts) over time.
The FLIPR protocol consists of 2 substance additions. First the compounds to be tested (10 µM) are pipetted onto the cells and the Ca^2+ influx is compared with the control (capsaicin 10 µM). This provides the result in % activation based on the Ca^2+ signal after the addition of 10 µM of capsaicin (CP). After 5 min incubation, 100 nM of capsaicin are applied and the Ca^2+ influx is also determined. Desensitising agonists and antagonists lead to suppression of the Ca^2+ influx. The % inhibition is calculated compared to the maximum achievable inhibition with 10 µM of capsazepine.
Triple analyses (n=3) are carried out and repeated in at least 3 independent experiments (N=4). Starting from the percentage displacement caused by different concentrations of the compounds to be tested of general formula I, IC50 inhibitory concentrations which cause a 50% displacement of capsaicin were calculated.
Ki values for the test substances were obtained by conversion by means of the Cheng-Prusoff equation (Cheng, Prusoff; Biochem. Pharmacol. 22, 3099-3108, 1973).
On to `CCNc1nc(C(F)(F)F)ccc1CNC(=O)Cc1cn(C)c2ccc(OC)cc12` [example compound 17, N-((2-(ethylamino)-6-(trifluoromethyl)pyridin-3-yl)methyl)-2-(5-methoxy-1-methyl-1H-indol-3-yl)acetamide], for which the inhibition at 1 µM turned out to be 0%.

The same assay, now with this note: @ 5 µM compound; capsaicin (CAP) stimulus; relative to maximum achievable inhibition with 10 µM capsazepine; read-out: TRPV1 human (f) CAP, inhibition (in %).
For `COCCOCc1nc(C(F)(F)F)ccc1CNC(=O)C(C)c1cn(C)c2ccc(O)cc12` (stereo not shown) [example compound 15, 2-(5-hydroxy-1-methyl-1H-indol-3-yl)-N-((2-((2-methoxyethoxy)methyl)-6-(trifluoromethyl)pyridin-3-yl)methyl)propanamide], the inhibition at 5 µM was 15%.
`CCNc1nc(C(F)(F)F)ccc1CNC(=O)Cc1cn(C)c2ccc(OC)cc12` [example compound 17, N-((2-(ethylamino)-6-(trifluoromethyl)pyridin-3-yl)methyl)-2-(5-methoxy-1-methyl-1H-indol-3-yl)acetamide]: the inhibition at 5 µM came to 35%.

The assay is the same for the next values; noted with them: functional (f) FLIPR assay, capsaicin (CAP) 100 nM; Ki from IC50 by Cheng-Prusoff equation.
For the molecule `CC(C(=O)NCc1ccc(C(F)(F)F)nc1N1CCCCC1)c1cn(C)c2ccc(O)cc12` (stereo not shown) [example compound 13, 2-(5-hydroxy-1-methyl-1H-indol-3-yl)-N-((2-(piperidin-1-yl)-6-(trifluoromethyl)pyridin-3-yl)methyl)propanamide], the Ki was 3.9 nM.
On the same count and under the same terms, under `CC1CCN(c2nc(C(F)(F)F)ccc2CNC(=O)C(C)c2cn(C)c3ccccc23)CC1` (stereo not shown) [example compound 14, 2-(1-methyl-1H-indol-3-yl)-N-((2-(4-methylpiperidin-1-yl)-6-(trifluoromethyl)pyridin-3-yl)methyl)propanamide] stands 53 nM.
Same read-out and setting: under `CCNc1nc(C(F)(F)F)ccc1CNC(=O)Cc1cn(C)c2ccc(O)cc12` [example compound 18, N-((2-(ethylamino)-6-(trifluoromethyl)pyridin-3-yl)methyl)-2-(5-hydroxy-1-methyl-1H-indol-3-yl)acetamide] stands 8.2 nM.
The same measure, in the same setting: under `CCCCNc1nc(C(F)(F)F)ccc1CNC(=O)C(C)c1cn(C)c2ccc(OC)cc12` (stereo not shown) [example compound 19, N-((2-(butylamino)-6-(trifluoromethyl)pyridin-3-yl)methyl)-2-(5-methoxy-1-methyl-1H-indol-3-yl)propanamide] stands 76.4 nM.
`Cn1cc(CC(=O)NCc2ccc(C(F)(F)F)nc2N2CCOCC2)c2cc(O)ccc21` [example compound 20, 2-(5-hydroxy-1-methyl-1H-indol-3-yl)-N-((2-morpholino-6-(trifluoromethyl)pyridin-3-yl)methyl)acetamide] gave a Ki of 16.5 nM.
Same read-out and setting: the same measure for `Cn1cc(CC(=O)NCc2ccc(C(F)(F)F)nc2C2CCCC2)c2cc(O)ccc21` [example compound 21, N-((2-cyclopentyl-6-(trifluoromethyl)pyridin-3-yl)methyl)-2-(5-hydroxy-1-methyl-1H-indol-3-yl)acetamide]: 8 nM.
Same read-out and setting: the same measure for `CC(C(=O)NCc1ccc(C(F)(F)F)nc1CC1CCCCC1)c1cn(C)c2ccccc12` (stereo not shown) [example compound 22, N-((2-(cyclohexylmethyl)-6-(trifluoromethyl)pyridin-3-yl)methyl)-2-(1-methyl-1H-indol-3-yl)propanamide]: 35.9 nM.
The same measure, in the same setting: under `CC1CCN(c2nc(C(F)(F)F)ccc2CNC(=O)Nc2nc3c([N+](=O)[O-])cccc3s2)CC1` [example compound 24, 1-((2-(4-methylpiperidin-1-yl)-6-(trifluoromethyl)pyridin-3-yl)methyl)-3-(4-nitrobenzo[d]thiazol-2-yl)urea] stands 31.2 nM.
In turn, `CC1CCN(c2nc(C(F)(F)F)ccc2CNC(=O)Nc2nc3ccccc3s2)CC1` [example compound 25, 1-(benzo[d]thiazol-2-yl)-3-((2-(4-methylpiperidin-1-yl)-6-(trifluoromethyl)pyridin-3-yl)methyl)urea] returned a Ki of 84.9 nM.

Still in this assay, the particulars now being: ne = did not show any effect in this assay; pAG = partial agonist.
Regarding `CCNc1nc(C(F)(F)F)ccc1CNC(=O)C(C)c1cn(C)c2ccc(OC)cc12` (stereo not shown) [example compound 16, N-((2-(ethylamino)-6-(trifluoromethyl)pyridin-3-yl)methyl)-2-(5-methoxy-1-methyl-1H-indol-3-yl)propanamide], the “TRPV1 human (f) CAP, result in words” value is recorded as “ne”.
The same measure, in the same setting: the same measure for `CC1CCN(c2nc(C(F)(F)F)ccc2CNC(=O)Nc2nc3c(Cl)cccc3s2)CC1` [example compound 23, 1-(4-chlorobenzo[d]thiazol-2-yl)-3-((2-(4-methylpiperidin-1-yl)-6-(trifluoromethyl)pyridin-3-yl)methyl)urea]: “ne”.
On the same count and under the same terms, under `CC1CCN(c2nc(C(F)(F)F)ccc2CNC(=O)Nc2nc3c([N+](=O)[O-])cccc3s2)CC1` [example compound 24, 1-((2-(4-methylpiperidin-1-yl)-6-(trifluoromethyl)pyridin-3-yl)methyl)-3-(4-nitrobenzo[d]thiazol-2-yl)urea] stands “pAG”.
Same read-out and setting: under `CC1CCN(c2nc(C(F)(F)F)ccc2CNC(=O)Nc2nc3ccccc3[nH]2)CC1` [example compound 26, 1-(1H-benzo[d]imidazol-2-yl)-3-((2-(4-methylpiperidin-1-yl)-6-(trifluoromethyl)pyridin-3-yl)methyl)urea] stands “ne”.
